According to ChEMBL document CHEMBL4400533, “Histone deacetylase 3 inhibitors in learning and memory processes with special emphasis on benzamides” (Eur J Med Chem, 2019):

Key:
Histone deacetylase 1 [1] = molecular target: T1, Histone deacetylase 1 (Homo sapiens, UniProt Q13547); experiment: Inhibition of HDAC1 (unknown origin) using (FAM)-labeled acetylated peptide as substrate measured after 17 hrs by fluorescence assay
Histone deacetylase 2 [2] = molecular target: T2, Histone deacetylase 2 (Homo sapiens, UniProt Q92769); experiment: Inhibition of HDAC2 (unknown origin) using (FAM)-labeled acetylated peptide as substrate measured after 17 hrs by fluorescence assay
Histone deacetylase 3 = Histone deacetylase 3 (Homo sapiens, UniProt O15379); experiment: Inhibition of HDAC3 (unknown origin) using (FAM)-labeled acetylated peptide as substrate measured after 17 hrs by fluorescence assay
[3] = molecular target: T3, Protein deacetylase HDAC6 (Homo sapiens, UniProt Q9UBN7); experiment: Inhibition of HDAC6 (unknown origin) using (FAM)-labeled acetylated peptide as substrate measured after 17 hrs by fluorescence assay
T3 sequence (Q9UBN7 whole entry): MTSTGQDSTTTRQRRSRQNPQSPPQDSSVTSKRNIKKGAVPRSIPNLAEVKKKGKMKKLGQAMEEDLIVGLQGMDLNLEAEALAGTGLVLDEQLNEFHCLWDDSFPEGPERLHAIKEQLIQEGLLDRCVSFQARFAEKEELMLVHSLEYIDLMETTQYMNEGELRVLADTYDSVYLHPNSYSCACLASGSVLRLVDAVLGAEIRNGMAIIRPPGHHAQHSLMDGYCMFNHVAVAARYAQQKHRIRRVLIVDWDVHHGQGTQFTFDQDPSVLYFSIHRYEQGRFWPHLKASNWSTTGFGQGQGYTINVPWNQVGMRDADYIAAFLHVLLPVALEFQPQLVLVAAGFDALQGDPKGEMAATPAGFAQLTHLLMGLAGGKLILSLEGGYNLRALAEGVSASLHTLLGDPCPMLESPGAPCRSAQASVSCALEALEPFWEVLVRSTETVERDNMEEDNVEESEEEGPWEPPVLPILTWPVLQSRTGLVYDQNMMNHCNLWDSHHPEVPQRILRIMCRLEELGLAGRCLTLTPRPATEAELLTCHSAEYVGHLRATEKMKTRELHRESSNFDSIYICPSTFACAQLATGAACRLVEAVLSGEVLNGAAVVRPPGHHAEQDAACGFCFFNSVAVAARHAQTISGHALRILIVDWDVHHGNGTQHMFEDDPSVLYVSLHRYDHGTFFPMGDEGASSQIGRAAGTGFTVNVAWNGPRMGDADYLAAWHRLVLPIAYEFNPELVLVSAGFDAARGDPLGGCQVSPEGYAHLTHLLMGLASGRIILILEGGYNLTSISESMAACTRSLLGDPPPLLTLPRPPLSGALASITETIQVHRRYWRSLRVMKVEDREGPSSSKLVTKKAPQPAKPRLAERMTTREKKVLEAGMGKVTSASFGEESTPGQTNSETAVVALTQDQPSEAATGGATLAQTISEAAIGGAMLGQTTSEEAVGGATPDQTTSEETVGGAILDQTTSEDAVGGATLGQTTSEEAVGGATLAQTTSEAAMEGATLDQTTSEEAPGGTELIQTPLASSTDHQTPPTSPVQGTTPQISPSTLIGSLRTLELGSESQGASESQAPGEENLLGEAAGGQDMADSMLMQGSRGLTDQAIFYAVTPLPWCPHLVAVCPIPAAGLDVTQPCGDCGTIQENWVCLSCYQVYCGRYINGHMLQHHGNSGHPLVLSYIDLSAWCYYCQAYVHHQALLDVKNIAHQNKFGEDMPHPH

Histone deacetylase 8 [4] = molecular target: T4, Histone deacetylase 8 (Homo sapiens, UniProt Q9BY41); experiment: Inhibition of HDAC8 (unknown origin) using (FAM)-labeled acetylated peptide as substrate measured after 17 hrs by fluorescence assay
T4 sequence (Q9BY41 whole entry): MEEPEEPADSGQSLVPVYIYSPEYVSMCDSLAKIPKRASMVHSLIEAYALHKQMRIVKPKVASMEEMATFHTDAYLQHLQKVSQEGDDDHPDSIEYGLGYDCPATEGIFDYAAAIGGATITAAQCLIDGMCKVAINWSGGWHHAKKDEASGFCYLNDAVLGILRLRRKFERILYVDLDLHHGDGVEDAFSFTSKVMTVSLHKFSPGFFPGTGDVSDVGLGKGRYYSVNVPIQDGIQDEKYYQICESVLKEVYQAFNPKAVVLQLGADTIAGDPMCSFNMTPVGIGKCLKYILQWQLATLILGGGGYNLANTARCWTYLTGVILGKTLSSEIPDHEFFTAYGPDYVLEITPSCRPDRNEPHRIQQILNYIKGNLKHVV

[5] = molecular target: T5, Polyamine deacetylase HDAC10 (Homo sapiens, UniProt Q969S8); experiment: Inhibition of HDAC10 (unknown origin) using (FAM)-labeled acetylated peptide as substrate measured after 17 hrs by fluorescence assay
T5 sequence (Q969S8 whole entry): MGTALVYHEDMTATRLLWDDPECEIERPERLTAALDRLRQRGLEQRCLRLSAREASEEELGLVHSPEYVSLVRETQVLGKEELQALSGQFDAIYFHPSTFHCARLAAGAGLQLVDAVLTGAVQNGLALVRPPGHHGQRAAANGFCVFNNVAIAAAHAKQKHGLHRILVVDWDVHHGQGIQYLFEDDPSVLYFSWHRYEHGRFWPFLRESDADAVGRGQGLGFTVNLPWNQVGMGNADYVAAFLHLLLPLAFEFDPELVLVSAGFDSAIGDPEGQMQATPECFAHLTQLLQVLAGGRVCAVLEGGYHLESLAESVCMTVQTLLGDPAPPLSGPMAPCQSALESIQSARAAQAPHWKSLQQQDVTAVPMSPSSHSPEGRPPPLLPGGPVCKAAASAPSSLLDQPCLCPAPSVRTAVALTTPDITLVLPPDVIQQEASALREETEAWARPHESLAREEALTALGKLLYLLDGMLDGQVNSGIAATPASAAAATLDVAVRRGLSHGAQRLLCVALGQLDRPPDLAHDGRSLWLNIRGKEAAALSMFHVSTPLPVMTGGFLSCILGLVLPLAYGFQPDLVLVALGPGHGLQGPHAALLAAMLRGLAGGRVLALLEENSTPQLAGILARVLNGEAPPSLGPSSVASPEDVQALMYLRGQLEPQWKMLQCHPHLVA

Histone deacetylase 4 [6] = molecular target: T6, Histone deacetylase 4 (Homo sapiens, UniProt P56524); experiment: Inhibition of HDAC4 (unknown origin)
Histone deacetylase 5 = Histone deacetylase 5 (Homo sapiens, UniProt Q9UQL6); experiment: Inhibition of HDAC5 (unknown origin)
Histone deacetylase 7 [7] = molecular target: T7, Histone deacetylase 7 (Homo sapiens, UniProt Q8WUI4); experiment: Inhibition of HDAC7 (unknown origin)
T7 sequence (Q8WUI4 whole entry): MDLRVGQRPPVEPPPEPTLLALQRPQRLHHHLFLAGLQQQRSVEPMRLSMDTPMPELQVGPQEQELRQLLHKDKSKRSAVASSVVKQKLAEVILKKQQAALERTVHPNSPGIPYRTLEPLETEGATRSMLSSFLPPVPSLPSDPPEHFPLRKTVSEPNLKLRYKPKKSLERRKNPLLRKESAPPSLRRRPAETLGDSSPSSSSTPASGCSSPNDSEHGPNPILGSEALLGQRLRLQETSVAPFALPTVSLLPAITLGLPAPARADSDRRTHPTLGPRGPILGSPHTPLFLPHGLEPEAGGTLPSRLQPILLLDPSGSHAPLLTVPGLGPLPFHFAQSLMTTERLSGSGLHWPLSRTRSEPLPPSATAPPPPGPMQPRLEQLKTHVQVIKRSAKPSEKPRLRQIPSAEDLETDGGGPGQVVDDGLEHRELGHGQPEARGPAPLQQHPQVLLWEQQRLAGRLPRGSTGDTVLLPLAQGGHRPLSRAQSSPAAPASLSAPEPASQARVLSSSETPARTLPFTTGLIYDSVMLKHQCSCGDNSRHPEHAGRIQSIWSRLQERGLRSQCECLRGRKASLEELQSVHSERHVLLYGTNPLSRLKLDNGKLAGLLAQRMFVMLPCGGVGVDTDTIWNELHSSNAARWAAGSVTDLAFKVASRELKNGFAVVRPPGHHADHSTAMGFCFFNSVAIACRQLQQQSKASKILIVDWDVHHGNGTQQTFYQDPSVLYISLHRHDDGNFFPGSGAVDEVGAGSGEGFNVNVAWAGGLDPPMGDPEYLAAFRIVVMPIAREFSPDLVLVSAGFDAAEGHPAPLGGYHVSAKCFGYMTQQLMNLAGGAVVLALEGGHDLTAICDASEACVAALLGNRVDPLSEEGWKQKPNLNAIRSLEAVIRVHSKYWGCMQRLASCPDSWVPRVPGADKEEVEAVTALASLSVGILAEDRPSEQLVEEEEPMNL

[8] = molecular target: Histone deacetylase 3/NCoR1 (Homo sapiens, UniProt O15379); experiment: Inhibition of human recombinant HDAC3/GST-tagged NCOR1 DAD (397 to 503 residues) expressed in baculovirus expression system by fluorescence assay
[9] = Dissociation constant, pKa of the compound; type: physicochemical
Histone deacetylase 1 [10] = molecular target: T1, Histone deacetylase 1; experiment: Inhibition of recombinant human HDAC1 using fluorescently-labeled acetylated histone peptide as substrate by microfluidic mobility shift assay
Histone deacetylase 2 [11] = molecular target: T2, Histone deacetylase 2; experiment: Inhibition of recombinant human HDAC2 using fluorescently-labeled acetylated histone peptide as substrate by microfluidic mobility shift assay
Histone deacetylase 4 [12] = molecular target: T6, Histone deacetylase 4; experiment: Inhibition of recombinant human HDAC4 using fluorescently-labeled acetylated histone peptide as substrate by microfluidic mobility shift assay
[13] = molecular target: T3, Protein deacetylase HDAC6; experiment: Inhibition of recombinant human HDAC6 using fluorescently-labeled acetylated histone peptide as substrate by microfluidic mobility shift assay
Histone deacetylase 7 [14] = molecular target: T7, Histone deacetylase 7; experiment: Inhibition of recombinant human HDAC7 using fluorescently-labeled acetylated histone peptide as substrate by microfluidic mobility shift assay
Histone deacetylase 8 [15] = molecular target: T4, Histone deacetylase 8; experiment: Inhibition of recombinant human HDAC8 using fluorescently-labeled acetylated histone peptide as substrate by microfluidic mobility shift assay
[16] = molecular target: T3, Protein deacetylase HDAC6; experiment: Inhibition of recombinant human full length N-terminal GST-tagged HDAC6 expressed in Sf9 insect cells using (S)-6-acetamido-2-(2-((S)-2-acetamido-4-methylpentanamido)acetamido)-N-(4-methyl-2-oxo-2H-chromen-7-yl)hexanamide as substrate by fluorescence assay

Sequence of Histone deacetylase 3 (O15379 whole entry): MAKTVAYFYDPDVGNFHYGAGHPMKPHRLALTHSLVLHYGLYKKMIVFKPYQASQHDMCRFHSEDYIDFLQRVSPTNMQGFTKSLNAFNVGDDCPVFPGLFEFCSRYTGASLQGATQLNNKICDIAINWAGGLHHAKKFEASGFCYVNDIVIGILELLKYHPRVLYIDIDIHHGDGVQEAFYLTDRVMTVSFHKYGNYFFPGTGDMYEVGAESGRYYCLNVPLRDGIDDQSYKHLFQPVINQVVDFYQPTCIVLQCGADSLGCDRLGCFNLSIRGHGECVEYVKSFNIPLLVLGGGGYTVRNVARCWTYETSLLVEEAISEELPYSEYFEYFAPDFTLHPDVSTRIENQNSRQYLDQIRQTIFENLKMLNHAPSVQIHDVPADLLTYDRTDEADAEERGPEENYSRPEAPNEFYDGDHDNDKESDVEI
T2 sequence (Q92769 whole entry): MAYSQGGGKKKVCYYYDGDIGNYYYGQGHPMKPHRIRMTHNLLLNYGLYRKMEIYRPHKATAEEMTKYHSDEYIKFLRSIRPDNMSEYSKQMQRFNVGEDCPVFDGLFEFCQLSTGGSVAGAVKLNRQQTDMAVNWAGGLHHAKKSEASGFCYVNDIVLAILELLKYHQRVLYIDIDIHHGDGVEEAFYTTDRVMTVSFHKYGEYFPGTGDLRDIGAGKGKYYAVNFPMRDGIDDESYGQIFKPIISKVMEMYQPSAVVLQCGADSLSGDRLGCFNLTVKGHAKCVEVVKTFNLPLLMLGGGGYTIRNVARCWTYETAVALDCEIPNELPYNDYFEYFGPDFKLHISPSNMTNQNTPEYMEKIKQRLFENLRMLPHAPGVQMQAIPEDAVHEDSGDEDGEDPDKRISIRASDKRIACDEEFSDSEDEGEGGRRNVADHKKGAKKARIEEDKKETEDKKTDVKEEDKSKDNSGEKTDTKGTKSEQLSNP
T1 sequence (Q13547 whole entry): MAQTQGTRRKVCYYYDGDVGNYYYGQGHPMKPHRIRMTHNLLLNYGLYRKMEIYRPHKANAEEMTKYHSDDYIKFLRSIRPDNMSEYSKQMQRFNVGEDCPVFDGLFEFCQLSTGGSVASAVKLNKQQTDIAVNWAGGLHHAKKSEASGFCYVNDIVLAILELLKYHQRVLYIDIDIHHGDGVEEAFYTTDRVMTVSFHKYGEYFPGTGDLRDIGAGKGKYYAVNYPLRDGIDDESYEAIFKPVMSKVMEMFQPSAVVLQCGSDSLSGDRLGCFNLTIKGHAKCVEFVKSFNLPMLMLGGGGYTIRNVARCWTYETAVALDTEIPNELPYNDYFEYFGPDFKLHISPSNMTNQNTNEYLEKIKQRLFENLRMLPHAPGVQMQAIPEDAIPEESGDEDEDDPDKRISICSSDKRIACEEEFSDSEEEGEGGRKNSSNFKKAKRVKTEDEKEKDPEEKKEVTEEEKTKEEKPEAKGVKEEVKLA
T6 sequence (P56524 whole entry): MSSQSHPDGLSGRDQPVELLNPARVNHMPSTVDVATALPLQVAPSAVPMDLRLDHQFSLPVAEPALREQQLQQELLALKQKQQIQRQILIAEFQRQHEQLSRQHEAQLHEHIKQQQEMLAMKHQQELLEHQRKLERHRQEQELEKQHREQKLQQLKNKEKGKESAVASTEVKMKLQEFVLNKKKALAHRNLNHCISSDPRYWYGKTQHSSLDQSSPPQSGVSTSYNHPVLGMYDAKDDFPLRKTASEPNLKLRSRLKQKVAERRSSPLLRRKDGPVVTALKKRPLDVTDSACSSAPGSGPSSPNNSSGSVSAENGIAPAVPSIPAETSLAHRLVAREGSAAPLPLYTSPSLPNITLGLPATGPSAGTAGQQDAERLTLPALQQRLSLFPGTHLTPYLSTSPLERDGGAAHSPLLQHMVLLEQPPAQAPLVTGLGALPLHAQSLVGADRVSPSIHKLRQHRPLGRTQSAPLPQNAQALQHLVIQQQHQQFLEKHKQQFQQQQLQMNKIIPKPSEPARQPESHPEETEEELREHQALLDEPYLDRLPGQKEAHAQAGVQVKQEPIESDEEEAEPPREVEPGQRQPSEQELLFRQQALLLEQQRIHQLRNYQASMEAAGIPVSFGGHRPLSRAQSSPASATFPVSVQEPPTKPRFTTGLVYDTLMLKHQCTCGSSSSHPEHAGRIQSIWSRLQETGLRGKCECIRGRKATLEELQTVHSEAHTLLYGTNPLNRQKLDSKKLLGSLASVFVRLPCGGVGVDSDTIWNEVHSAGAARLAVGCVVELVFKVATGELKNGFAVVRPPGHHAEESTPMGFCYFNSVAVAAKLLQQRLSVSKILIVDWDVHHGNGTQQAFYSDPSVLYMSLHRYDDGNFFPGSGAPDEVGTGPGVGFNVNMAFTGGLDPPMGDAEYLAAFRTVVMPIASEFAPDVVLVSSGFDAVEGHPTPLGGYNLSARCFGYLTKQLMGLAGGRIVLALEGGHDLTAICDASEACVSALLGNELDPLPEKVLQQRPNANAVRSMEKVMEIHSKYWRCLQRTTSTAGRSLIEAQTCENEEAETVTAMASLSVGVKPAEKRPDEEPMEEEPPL
Sequence of Histone deacetylase 5 (Q9UQL6 whole entry): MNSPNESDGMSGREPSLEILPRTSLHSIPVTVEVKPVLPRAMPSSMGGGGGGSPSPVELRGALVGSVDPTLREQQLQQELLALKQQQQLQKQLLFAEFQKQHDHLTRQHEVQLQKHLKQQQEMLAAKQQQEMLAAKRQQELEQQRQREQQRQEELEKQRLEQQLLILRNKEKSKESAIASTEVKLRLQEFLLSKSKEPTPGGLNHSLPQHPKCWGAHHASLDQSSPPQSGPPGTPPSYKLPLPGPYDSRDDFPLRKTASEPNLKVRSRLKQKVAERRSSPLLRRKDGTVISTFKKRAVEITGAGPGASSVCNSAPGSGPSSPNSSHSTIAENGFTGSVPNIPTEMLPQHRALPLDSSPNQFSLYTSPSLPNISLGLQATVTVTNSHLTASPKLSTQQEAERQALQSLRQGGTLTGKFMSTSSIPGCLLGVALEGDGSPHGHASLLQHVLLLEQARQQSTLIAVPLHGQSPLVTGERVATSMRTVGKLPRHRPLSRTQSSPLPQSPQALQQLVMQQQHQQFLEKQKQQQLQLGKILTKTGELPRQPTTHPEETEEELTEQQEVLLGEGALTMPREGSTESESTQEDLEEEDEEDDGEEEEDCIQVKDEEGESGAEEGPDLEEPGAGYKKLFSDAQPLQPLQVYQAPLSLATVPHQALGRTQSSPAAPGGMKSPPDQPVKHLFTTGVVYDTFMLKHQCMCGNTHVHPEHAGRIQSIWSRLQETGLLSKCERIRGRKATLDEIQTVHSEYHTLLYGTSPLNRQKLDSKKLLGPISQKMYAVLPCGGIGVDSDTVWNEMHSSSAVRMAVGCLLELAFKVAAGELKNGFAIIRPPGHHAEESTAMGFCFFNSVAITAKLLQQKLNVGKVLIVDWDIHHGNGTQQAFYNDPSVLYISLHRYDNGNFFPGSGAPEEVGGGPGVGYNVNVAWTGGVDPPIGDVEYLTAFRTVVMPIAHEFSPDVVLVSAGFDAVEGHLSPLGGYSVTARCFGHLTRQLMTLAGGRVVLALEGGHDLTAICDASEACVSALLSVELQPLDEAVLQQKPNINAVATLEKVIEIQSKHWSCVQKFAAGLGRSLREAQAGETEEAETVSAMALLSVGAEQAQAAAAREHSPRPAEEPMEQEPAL

Row | IC50 (Histone deacetylase 1 [1]) | IC50 (Histone deacetylase 2 [2]) | IC50 (Histone deacetylase 3) | IC50 [3] | IC50 (Histone deacetylase 8 [4]) | IC50 [5] | Compound | other results
1 | 3200 nM | 200 nM | 30 nM | 11200 nM | > 30000 nM | 3000 nM | CC(=O)Nc1cccc(-c2csc(NC(=O)CCCCCC(=O)Nc3ccccc3N)n2)c1 | –
2 | – | – | – | – | – | – | Nc1ccccc1NC(=O)CCCCCC(=O)Nc1ccccc1 | IC50 (Histone deacetylase 4 [6]): Not Active; IC50 (Histone deacetylase 5): Not Active; IC50 (Histone deacetylase 7 [7]): Not Active
3 | – | – | – | – | – | – | Nc1ccccc1NC(=O)c1ccc(-c2cn(CCc3ccsc3)nn2)cc1 | IC50 [8]: 240 nM
4 | – | – | – | – | – | – | CC(=O)Nc1ccc(C(=O)Nc2ccc(F)cc2N)cc1 | pKa [9]: 2.33
5 | 3.8 nM | 26.5 nM | 2.1 nM | 3.3 nM | 1950 nM | 3.7 nM | Nc1cccc(-c2csc(NC(=O)CCCCCC(=O)NO)n2)c1 | –
6 | 2.5 nM | 24.5 nM | 1.3 nM | 0.79 nM | 787 nM | 2.1 nM | CCOC(=O)Nc1cccc(-c2csc(NC(=O)CCCCCC(=O)NO)n2)c1 | –
7 | 2490 nM | 147 nM | 60.3 nM | > 30000 nM | > 30000 nM | 2910 nM | Nc1cccc(-c2csc(NC(=O)CCCCCC(=O)Nc3ccccc3N)n2)c1 | –
8 | – | – | – | – | – | – | C=C1CN(Cc2ccc(C(=O)Nc3ccccc3N)cc2)C(=O)c2ccccc21 | IC50 (Histone deacetylase 1 [10]): 4800 nM; IC50 (Histone deacetylase 2 [11]): 30 nM; IC50 (Histone deacetylase 4 [12]): 5000 nM; IC50 [13]: > 10000 nM; IC50 (Histone deacetylase 7 [14]): 4100 nM; IC50 (Histone deacetylase 8 [15]): > 10000 nM
9 | 4.2 nM | 21 nM | 1.7 nM | < 0.17 nM | 2580 nM | 5.7 nM | CC(C)(C)OC(=O)Nc1cccc(-c2csc(NC(=O)CCCCCC(=O)NO)n2)c1 | –
10 | – | – | – | – | – | – | CC(=O)Nc1ccc(C(=O)Nc2ccccc2N)cc1 [TACEDINALINE] | pKa [9]: 3.33
11 | 24800 nM | 880 nM | 60 nM | > 30000 nM | > 30000 nM | > 30000 nM | CCOC(=O)Nc1cccc(-c2csc(NC(=O)CCCCCC(=O)Nc3ccccc3N)n2)c1 | –
12 | 4200 nM | 1100 nM | 160 nM | 1500 nM | > 30000 nM | 5300 nM | CC(C)(C)OC(=O)Nc1cccc(-c2csc(NC(=O)CCCCCC(=O)Nc3ccccc3N)n2)c1 | –
13 | – | – | – | – | – | – | Nc1ccccc1NC(=O)c1cnccn1 | IC50 [16]: > 20000 nM
